From patent US7700088B2, “Interleukin-9 mutein peptides” (Genaera Corporation, priority 1995, dated 2010)
Entries after “also recorded” stand apart in the source; their conditions may differ.

Experiments:
[1] = system: IL-9 mediated MO7e proliferation; test: Inhibition of IL-9 mediated MO7e proliferation (acid phosphatase cell proliferation assay); type: cell-based, human; settings: for inhibition of cellular growth induced by IL-9: tyrophostins incubated with MO7e cells, compared with control (no treatment); for inhibition of cellular growth induced by IL-9 (antagonism of IL-9): peptides incubated with MO7e cells, compared with control (no peptide)
Method: Cell lines were used to assess the function of peptides, aminosterols, tyrophostins, rhIL-9, rmIL-9, and recombinant mutant forms of these proteins as well as all other compounds that block IL-9 function. A proliferative response was measured and compared to each of the other cytokines, variant or mutant forms of Il-9, or IL-9 antagonists. In addition, compounds were tested for their ability to antagonize the baseline proliferative response. Once a baseline proliferative response was established for a cytokine a statistically significant loss of response in assays repeated three times in triplicate was considered evidence for antagonism. A true antagonistic response was differentiated from cellular toxicity by direct observation, trypan blue staining (a technique well known to one of normal skill in the art), and loss of acid phosphatase activity. Specificity was assessed for the antagonist by evaluating whether the activity was substantially expressed against other proliferative agents such as steel factor, interleukin 3, or interleukin 4.
The MO7e line is a human megakaryoblastic cell line, cultured in RPMI 1640 (GIBCO/BRL, Gaithersburg, Md.), 20% Fetal Bovine Serum (Hyclone) and 10 ng/ml IL-3 (R&D Systems, Minneapolis, Minn.). The MJ line is a cytokine independent human lymphoblastoid cell line grown in RPMI 1640 (GIBCO/BRL) K562 is a human erthroleukemia cell line, cultured in RPMI 1640 (GIBCO/BRL) and 10% fetal bovine serum (Hyclone). C8166-45 is a IL-9 receptor bearing line, cultured in RPMI 1640 GIBCO/BRL) and 10% Fetal bovine serum (Hyclone). All the cell lines respond to cytokines including IL-9. The cell lines are fed and reseeded at 2×10^5 cells/ml every 72 hours.
The cells were centrifuged for 10 minutes at 2000 rpm and resuspended in RPMI 1640 with 0.5% Bovine Serum Albumin (GIBCO/BRL, Gaithersburg, Md.) and insulin-transferrin-selenium (ITS) cofactors (GIBCO/BRL, Gaithersburg, Md.). Cells were counted using a hemocytometer and diluted to a concentration of 1×10^5 cells/ml and plated in a 96-well microtiter plate. Each well contained 0.15 or 0.2 ml giving a final concentration of 2×10^4 cells per well.
MO7e cells were stimulated with 50 ng/ml Stem Cell Factor (SCF) (R&D Systems, Minneapolis, Minn.) alone, 50 ng/ml SCF plus 50 ng/ml IL-3 (R&D Systems, Minneapolis, Minn.), or 50 ng/ml SCF plus 50 ng/ml IL-9. A control was included which contains cells and basal media only. Serial dilutions of test compounds (i.e., recombinant IL-9 proteins, peptides, small molecules) were added to each test condition in triplicate. The MJ cell line was used as an independent control for nonspecific cytotoxicity. Cultures were incubated for 72-96 hours at 37° C. in 5% CO2.
Cell proliferation was assayed using the Abacus Cell Proliferation Kit (Clontech, Palo Alto, Calif.) which determines the amount of intracellular acid phosphatase present as an indication of cell number. The substrate p-nitrophenyl phosphate (pNPP) was converted by acid phosphatase to p-nitrophenol which was measured as an indicator of enzyme concentration. pNPP was added to each well and incubated at 37° C. for one hour. 1N sodium hydroxide was then added to stop the enzymatic reaction, and the amount of p-nitrophenol was quantified using a Dynatech 2000 plate reader (Dynatech Laboratories, Chantilly, Va.) at 410 nm wavelength. Standard curves that compare cell number with optical absorbance were used to determine the linear range of the assay. Assay results were only used when absorbance measurements are within the linear range of the assay.

Soluble IL-9 receptor = target: T1, Soluble IL-9 receptor (Homo sapiens, UniProt Q01113); test: Binding of recombinant IL-9 forms to soluble IL-9 receptor (anti-FLAG immunoprecipitation, Western blot); settings: 0.5 micrograms soluble receptor (amino acids 44 to 270), PBS, room temperature, 30 minutes
T1 construct: Soluble IL-9 receptor including amino acids 44 to 270 (R&D Systems); purchased R&D Systems
T1 sequence (Q01113 44-270): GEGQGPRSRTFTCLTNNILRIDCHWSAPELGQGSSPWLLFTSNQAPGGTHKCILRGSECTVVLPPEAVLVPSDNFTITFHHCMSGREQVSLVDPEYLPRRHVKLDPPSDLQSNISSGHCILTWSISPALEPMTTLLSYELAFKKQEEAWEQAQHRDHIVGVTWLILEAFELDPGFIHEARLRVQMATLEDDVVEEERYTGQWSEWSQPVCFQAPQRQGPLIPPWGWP
Method: Soluble IL-9 receptor including amino acids 44 to 270 (R&D Systems) was incubated with different forms of human recombinant IL-9. Varying amounts of FlagMet117 and FlagThr117 (described in Example 7) were incubated in PBS at room temperature for 30 minutes with 0.5 micrograms of soluble receptor. EBC buffer (50 mM Tris pH 7.5; 0.1 M NaCl; 0.5% NP40) was added (300 microliters) was added along with 1 microgram of anti-FLAG monoclonal antibody (IBI) and incubated for 1 hour on ice. Forty microliters of protein A sepharose solution was added to each sample and mixed for 1 hour at 4° C. Samples were centrifuged for 1 minute 11,000×G and pellets were washed 4 times with 500 microliters of EBC. Pellets were dissolved in 26 microliters of 2×SDS buffer, boiled for 4 minutes, and electrophoresed through an 18% SDS polyacrylamide gel. Western blots were performed as described in Example 15 except the blots were probed with an anti-IL-9 receptor antibody (R&D Systems).

Compound	inhibition of cellular growth induced by IL-9 (antagonism of IL-9) [1]	other results
N#C/C(=C\c1ccc(O)c(O)c1)C(=O)NCCCc1ccccc1 [Tyrophostin B46, reference compound]		inhibition of cellular growth induced by IL-9 [1]: greatest inhibition
N#C/C(=C\c1ccc(O)c(O)c1)C(=O)NCCCCc1ccccc1 [Tyrophostin B56, reference compound]		inhibition of cellular growth induced by IL-9 [1]: greatest inhibition
IL-9 FlagMet117: purified recombinant human FLAG IL-9 fusion protein with methionine at position 117		binding to soluble IL-9 receptor (Soluble IL-9 receptor): bound to the soluble receptor
KP-16: antagonistic peptide derived from IL-9 exon 4, IL-9 residues 43-60, SEQ. ID NO: 13 (SDNATRPAFSERLSQMTN)	considerable inhibitory activity; also recorded: act as IL-9 antagonists	
KP-20: antagonistic peptide derived from IL-9 exon 4, IL-9 residues 71-90, SEQ. ID NO: 14 (FSRVKKSVEVLKNNKAPY)	considerable inhibitory activity; also recorded: act as IL-9 antagonists	
KP-23: peptide derived from IL-9 exon 5, SEQ ID NO: 15, spanning the codon 117 polymorphism (EQPANQTTAGNALTFLKS)	antagonistic properties	
KP-24: peptide derived from IL-9 exon 5, SEQ ID NO: 16, spanning the codon 117 polymorphism (TAGNALTFLKSLLEIFQK; Residues 99-116 of Mature hIL-9 Receptor)	antagonistic properties	
